Assay results published in the supplement of paper PMC11208160.

Assay: recombinant barcode read abundance after kanamycin selection (control-corrected) (log10(CPM+1)); higher = more efficient recombination; sequences stand for … in AGTGCAGAGAAAATCGGCCAGTTTTCTCTGCCTGCAGTCCGCATGCCGT…AGATTTATGCAGCGGACTGCCTTTCTCCCAAAGTGATAAACCGGACAGTATCATGGACCGGTTTTCCCGGTAATCCGTATTTGCAAGGTTGGTTTCACT; site = the 11-nt target
How it was run: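 Duplicate cultures were plated either on chloramphenicol/ampicillin LB agar, serving as control, or on chloramphenicol/ampicillin/kanamycin with 0.1 mM IPTG. These came from a pooled E. coli library co-electroporated with a donor plasmid, each member pairing a target with an IS621 bridge RNA target-binding loop. Recombination efficiency equals averaged, control-corrected counts per million of recombinant-junction barcodes. It is listed as log10(CPM+1).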
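Further: IS621 recombinase and bridge RNA in Escherichia coli cells.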

With “CTACCACCTTGGGTTCTAACCTGTTGCCT (site CTACCATCTAG)” as the sequence, how does the “recombinant barcode read abundance (log10)” value read?
The value was 0.214.

With “CTACCATCTTGGGTTCTAACCTGTTGCCT (site CTACCAACTAG)” as the sequence, how does the “recombinant barcode read abundance (log10)” value read?
Its value is 0.0518.

For “CTACCATCTTGGGTTCTAACCTGTTGCCT (site CTACCACCTAG)”, which “recombinant barcode read abundance (log10)” value is on record?
Its value is 0.0894.

Which “recombinant barcode read abundance (log10)” value does the source give for “CTACCATCTTGGGTTCTAACCTGTTGCCT (site CTACCAGCTAG)” here?
Its value is 0.278.

For “CTACCATCTTGGGTTCTAACCTGTTGCCT (site CTACCATCTAG)”, which “recombinant barcode read abundance (log10)” value is on record?
Its value is 0.948.

Which “recombinant barcode read abundance (log10)” value does the source give for “CTACCGTCTTGGGTTCTAACCTGTTGCGG (site CTACCATCTCG)” here?
The value was 0.285.

Which “recombinant barcode read abundance (log10)” value does the source give for “CTACCGTCTTGGGTTCTAACCTGTTGCGG (site CTACCGTCTCC)” here?
The value was 1.97.

Which “recombinant barcode read abundance (log10)” value does the source give for “CTACCTCCTTGGGTTCTAACCTGTTGCGT (site CTACCTCCTAC)” here?
The value was 1.16.

With “CTACCTCCTTGGGTTCTAACCTGTTGCGT (site CTACTTCCTAC)” as the sequence, how does the “recombinant barcode read abundance (log10)” value read?
The value was 0.37.

For “CTACGAACTTGGGTTCTAACCTGTTGCTG (site CTACGAACTCA)”, which “recombinant barcode read abundance (log10)” value is on record?
Its value is 1.53.

With “CTACGAACTTGGGTTCTAACCTGTTGCTG (site CTACGCACTCA)” as the sequence, how does the “recombinant barcode read abundance (log10)” value read?
Its value is 0.167.

With “CTACGAACTTGGGTTCTAACCTGTTGCTG (site CTACGGACTCA)” as the sequence, how does the “recombinant barcode read abundance (log10)” value read?
Its value is 0.102.

With “CTACGAACTTGGGTTCTAACCTGTTGCTG (site CTACGTACTCA)” as the sequence, how does the “recombinant barcode read abundance (log10)” value read?
The value was 0.142.

With “CTACGTCCTTGGGTTCTAACCTGTTGCTG (site CTACGTCCTAA)” as the sequence, how does the “recombinant barcode read abundance (log10)” value read?
The value was 0.0384.

With “CTACGTCCTTGGGTTCTAACCTGTTGCTG (site CTACGTCCTCA)” as the sequence, how does the “recombinant barcode read abundance (log10)” value read?
Its value is 1.64.

For “CTACGTCCTTGGGTTCTAACCTGTTGCTG (site CTACGTCCTGA)”, which “recombinant barcode read abundance (log10)” value is on record?
The value was 0.203.

For “CTACGTCCTTGGGTTCTAACCTGTTGCTG (site CTACGTCCTTA)”, which “recombinant barcode read abundance (log10)” value is on record?
Its value is 0.0883.

Which “recombinant barcode read abundance (log10)” value does the source give for “CTACGTCCTTGGGTTCTAACCTGTTGCTT (site CTACGTCCTAA)” here?
The value was 1.04.

With “CTACGTCCTTGGGTTCTAACCTGTTGCTT (site CTACGTCCTCA)” as the sequence, how does the “recombinant barcode read abundance (log10)” value read?
Its value is 0.14.

For “CTACGTCCTTGGGTTCTAACCTGTTGCTT (site CTACGTCCTGA)”, which “recombinant barcode read abundance (log10)” value is on record?
Its value is 0.297.

With “CTACGTCCTTGGGTTCTAACCTGTTGCTT (site CTACGTCCTTA)” as the sequence, how does the “recombinant barcode read abundance (log10)” value read?
Its value is 0.0433.

For “CTACGTTCTTGGGTTCTAACCTGTTGCCT (site CCACGTTCTAG)”, which “recombinant barcode read abundance (log10)” value is on record?
Its value is 0.761.

Which “recombinant barcode read abundance (log10)” value does the source give for “CTACGTTCTTGGGTTCTAACCTGTTGCCT (site CTACGTTCTAG)” here?
Its value is 1.05.

Which “recombinant barcode read abundance (log10)” value does the source give for “CTACTAACTTGGGTTCTAACCTGTTGCAT (site CTACTAACTAA)” here?
The value was 0.173.

With “CTACTAACTTGGGTTCTAACCTGTTGCAT (site CTACTAACTAC)” as the sequence, how does the “recombinant barcode read abundance (log10)” value read?
The value was 0.149.

Which “recombinant barcode read abundance (log10)” value does the source give for “CTACTAACTTGGGTTCTAACCTGTTGCAT (site CTACTAACTAG)” here?
The value was 0.268.

For “CTACTAACTTGGGTTCTAACCTGTTGCAT (site CTACTAACTAT)”, which “recombinant barcode read abundance (log10)” value is on record?
Its value is 1.34.

With “CTACTAACTTGGGTTCTAACCTGTTGCTT (site CTACTAACTAA)” as the sequence, how does the “recombinant barcode read abundance (log10)” value read?
Its value is 0.316.

For “CTACTAACTTGGGTTCTAACCTGTTGCTT (site CTACTAACTAC)”, which “recombinant barcode read abundance (log10)” value is on record?
The value was 0.0509.

For “CTACTAACTTGGGTTCTAACCTGTTGCTT (site CTACTAACTAG)”, which “recombinant barcode read abundance (log10)” value is on record?
Its value is 0.0714.

For “CTACTAACTTGGGTTCTAACCTGTTGCTT (site CTACTAACTAT)”, which “recombinant barcode read abundance (log10)” value is on record?
Its value is 0.0517.

Which “recombinant barcode read abundance (log10)” value does the source give for “CTACTAGCTTGGGTTCTAACCTGTTGCAA (site CTACTAGCTAT)” here?
The value was 0.196.

With “CTACTAGCTTGGGTTCTAACCTGTTGCAA (site CTACTAGCTCT)” as the sequence, how does the “recombinant barcode read abundance (log10)” value read?
Its value is 0.617.

For “CTACTAGCTTGGGTTCTAACCTGTTGCAA (site CTACTAGCTGT)”, which “recombinant barcode read abundance (log10)” value is on record?
Its value is 0.0288.

Which “recombinant barcode read abundance (log10)” value does the source give for “CTACTAGCTTGGGTTCTAACCTGTTGCAA (site CTACTAGCTTT)” here?
The value was 1.25.

For “CTAGACACTTGGGTTCTAACCTGTTGCGG (site CTAGACACTCC)”, which “recombinant barcode read abundance (log10)” value is on record?
The value was 2.14.
